Where “and” joins values, the source holds several entries; their conditions need not be identical. Equal entries are not always repeated.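 Assay format: 96-well plates, 48-hour exposure. The concentration for 50% growth inhibition is given as GI50. The concentration for full growth arrest is given as TGI.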
Assays:
Assay in all cases: NCI-60 cell line screen, 48 h
SK-MEL-2 melanoma = system: SK-MEL-2 melanoma
SF-539 CNS = system: SF-539 CNS
DU-145 prostate = system: DU-145 prostate
HOP-92 NSCLC = system: HOP-92 NSCLC
U251 CNS = system: U251 CNS
SNB-75 CNS = system: SNB-75 CNS
HOP-62 NSCLC = system: HOP-62 NSCLC
CAKI-1 renal = system: CAKI-1 renal
HCT-116 colon = system: HCT-116 colon
MDA-MB-231 breast = system: MDA-MB-231 breast

Compound	GI50 (SK-MEL-2 melanoma) [µM]	TGI (SK-MEL-2 melanoma) [µM]	GI50 (SF-539 CNS) [µM]	TGI (SF-539 CNS) [µM]	GI50 (DU-145 prostate) [µM]	TGI (DU-145 prostate) [µM]	GI50 (HOP-92 NSCLC) [µM]	TGI (HOP-92 NSCLC) [µM]	GI50 (U251 CNS) [µM]	TGI (U251 CNS)	GI50 (SNB-75 CNS) [µM]	TGI (SNB-75 CNS) [µM]	GI50 (HOP-62 NSCLC) [µM]	TGI (HOP-62 NSCLC)	GI50 (CAKI-1 renal) [µM]	TGI (CAKI-1 renal) [µM]	GI50 (HCT-116 colon) [µM]	TGI (HCT-116 colon) [µM]	GI50 (MDA-MB-231 breast)	TGI (MDA-MB-231 breast) [µM]
CCN(CC)c1ccc2nc3c4ccccc4c(=NC(=O)c4ccccc4-c4c5ccc(N(CC)CC)cc5[o+]c5cc(N(CC)CC)ccc45)cc-3oc2c1	3.4	9.15	3.24	8.73	1.75	3.46	3.51	19.4	2.33	8.83 µM	8.27	23.5	1.81	4.53 µM	4.95	18.9	1.88	> 22.4	1.99 µM	8.91
CCOc1cc(/C=N\NC(=O)N/N=C/c2ccc(O)c(OCC)c2)ccc1O	1.55	> 100	1.42	> 100	2.21	> 100	87.5	> 100	1.75	> 100 µM	2.76	> 100	–	> 100 µM	3.06	> 100	0.866	> 100	6.45 µM	> 100
COc1cnc2c(c1)C(=O)c1c-2n(CCCN2CCN(CCO)CC2)c(=O)c2cc([N+](=O)[O-])ccc12	18.7	39	1.7	3.68	1.43	4.42	13.3	31	1.16	2.42 µM	1.64	13.1	2.76	19.6 µM	1.34	15.8	–	–	1.81 µM	3.74
CNCCOc1nc2c3cnccc3cc(-c3cc(OC)c(OC)c(OC)c3)c2c2ccncc12	0.264	0.683	0.0438	0.225	0.022	0.167	0.0168	0.1	0.0241	0.523 µM	0.0304	0.162	0.0224	0.166 µM	0.039	0.292	< 0.0147	0.175	0.0765 µM	1.18
c1cnc2c(c1)Nc1cnncc1S2	–	> 100	–	> 100	–	> 100	–	> 100	–	> 100 µM	–	97.8	–	> 100 µM	–	> 100	–	> 100	–	> 100
C=C=[CH][Sn]([c]1ccccc1)([c]1ccccc1)[c]1ccccc1	1.84	3.71	2.08	4.34	1.14	2.42	0.593	2.03	1.66	3.16 µM	1.31	4.72	2.45	5.26 µM	1.74	4.29	0.866	2.27	1.79 µM	3.36
CC(C)N(C[C@H]1O[C@@H](n2cnc3c(N)ncnc32)[C@H](O)[C@@H]1O)C1CC(CCc2nc3ccc(C(C)(C)C)cc3[nH]2)C1 (some centres undefined)	> 69	> 100	> 100	> 100	> 100	> 100	31.4	> 100	> 100	> 100 µM	24.9	> 100	> 100	> 100 µM	> 100	> 100	> 68	> 100	69.8 µM	> 100
CN(C)CCOc1nc2ccccc2c2c1-c1ccc(Cl)cc1C2=O	2.34	4.68	1.07	2.59	0.444	1.35	0.748	12.3	0.38	1.59 µM	1.22	2.62	1.21	–	0.499	5.18	0.422	1.52	1.1 µM	3
O=C(CC1(O)C(=O)Nc2c(Cl)ccc(Cl)c21)c1ccc(C2CC2)cc1 (centres undefined)	2.06	8.83	0.751	5.79	1.63	17.8	0.769	14.8	1.13	14.6 µM	1.99	9.33	1.28	19.4 µM	0.449	17.3	0.375	6.05	2.64 µM	21.8
Nc1cccc2nsnc12	–	> 100	–	> 100	–	> 100	–	> 100	–	> 100 µM	–	> 100	–	> 100 µM	–	> 100	–	> 100	–	> 100
CCNCCNc1cc(-c2cccc(C(F)(F)F)c2)c(C#N)c2nc3ccccc3n12	1.87	3.59	1.7	3.23	1.47	2.83	1.69	3.54	1.67	3.08 µM	1.5	2.92	2.13	3.8 µM	1.54	3	0.239	0.515	1.67 µM	3.29
Cc1ccc(-c2cc(/C=N/O)on2)cc1	97.3	> 100	> 100	> 100	68.7	> 100	47.6	> 100	54.3	> 100 µM	–	–	> 100	> 100 µM	43.9	> 100	71.4	> 100	> 100 µM	> 100
C=C1CO[C@@H]2C[C@@H]1CC/C(C)=C/CC/C(C)=C/CC[C@@]2(C)O	27.4	> 64	23.4	43.6	18.5	38.3	15.9	44.9	17.9	32.4 µM	25	46.3	17.1	32.5 µM	20.3	41.8	17.2	31.4	15.5 µM	33.3
O=[N+]([O-])c1ccc(-c2ccccc2)c([As](=O)(O)O)c1	28.2	62.8	13	44.6	11.3	29	13.5	95.4	3.08	23.9 µM	15.1	> 100	3.11	18 µM	13.2	98.1	10.9	25.4	10 µM	37.4
CS(=O)(=O)c1nc(Cl)c(Cl)c(C#N)c1Cl	–	14.5	–	11.3	–	21.4	–	3.73	–	11.7 µM	–	26.9	–	35.6 µM	–	1.69	–	4.47	–	3.24
O=C1c2ccccc2C(=O)c2c(NC(=O)c3ccc4c5c(ncnc35)-c3ccccc3C4=O)cccc21	–	> 100	–	> 100	–	> 100	–	> 100	–	> 100 µM	–	58.5	–	42.7 µM	–	> 100	–	> 100	–	> 100
NC(=O)NC(=O)C1CCCCC1C(=O)O (centres undefined)	–	> 100	–	> 100	–	> 100	–	> 100	–	> 100 µM	–	> 100	–	> 100 µM	–	> 100	–	> 100	–	> 100
O=C1c2cccc3cc([N+](=O)[O-])cc(c23)C(=O)N1O	–	> 100	–	–	–	> 100	–	> 100	–	> 100 µM	–	–	–	> 100 µM	–	> 100	–	> 100	–	> 100
COc1ccc(C2C3=C(COC3=O)N(CCO)c3cc4c(cc32)OCCO4)cc1OC (centres undefined)	0.979	3.65	1.69	> 18	1.93	14.9	0.837	> 50	2.89	> 50 µM	–	–	9.58	> 50 µM	4.03	> 50	1.96	> 50	6.78 µM	36.5
CC[C@@]1(OC(=O)CN)C(=O)OCc2c1cc1n(c2=O)Cc2cc3c(N)c4c(cc3nc2-1)OCO4	0.0226	0.327	< 0.0001	0.000945	< 0.0001	–	–	–	< 0.0001	0.0186 µM and 0.0571 µM	0.000442	0.824	< 0.0001	0.205 µM and 0.25 µM	< 0.0001	–	0.000318	> 100	0.0873 µM and 0.3 µM	> 100
CC[O-].CC[O-].O=C([CH-]C(=O)c1ccccc1)c1ccccc1.O=C([CH-]C(=O)c1ccccc1)c1ccccc1.[Ti+4]	> 100	> 100	19.8	> 100	–	–	44.3	> 100	57.2	> 100 µM	61.6	> 100	> 100	> 100 µM	> 100	> 100	> 100	> 100	–	–
OC(c1ccccc1)c1c(-c2ccccc2)oc(-c2ccccc2)c1C(O)c1ccccc1 (centres undefined)	–	31.5	–	30.5	–	28.3	–	26.5	–	27.6 µM	–	–	–	27.9 µM	–	30.4	–	18.3	–	–
O=C(Nc1ccc(S(=O)(=O)NC2CCCCCC2)cc1)C(c1ccccc1)S(=O)(=O)c1ccc(F)cc1 (centres undefined)	0.449	2.08	0.389	1.88	0.261	2.68	0.845	3.9	0.51	3.57 µM	0.508	2.17	0.97	3.86 µM	–	–	0.185	1.7	0.35 µM	1.94
CCOC(=O)C1CC/C(=C(/C#N)C(=O)OC)N1 (centres undefined)	–	> 100	–	> 100	–	–	–	> 100	–	> 100 µM	–	> 100	–	> 100 µM	–	> 100	–	> 100	–	–
O=P1(O)c2ccccc2CS(=O)(=O)Cc2ccccc21	–	> 100	–	> 100	–	> 100	–	> 100	–	> 100 µM	–	–	–	> 100 µM	–	> 100	–	> 100	–	> 100
C=C(C)[C@@H]1CC[C@]2(C)[C@H](C=CC3=C4C[C@@](C)(CO)CC[C@]4(C)CC[C@]32C)[C@@]1(C)CCCN	1.92	3.58	1.73	3.13	1.72	3.15	1.48	3.21	1.64	3.32 µM	1.53	2.97	–	–	1.52	2.85	1.69	3.21	1.77 µM	3.27
OC1C2C=CCC1CCC2 (centres undefined)	–	> 100	–	> 100	–	–	–	> 100	–	> 100 µM	–	> 100	–	> 100 µM	–	> 100	–	> 100	–	–
CCS/C(Nc1ccccc1)=C(\C#N)C(=O)N/N=C/c1ccc(Cl)cc1Cl	3.24	43.6	2.89	20.6	3.57	> 100	–	–	3.95	> 100 µM	2.15	9.37	3.66	> 100 µM	2.39	> 100	2.99	> 100	4.75 µM	> 100
Oc1[nH]c2ccc(Cl)cc2c1/C=c1/ccc2c(c1)N=C(c1cc(F)cc(F)c1)N=2	3.24	8.52	8.7	> 100	4.82	> 100	2.41	31.1	–	–	2.06	7.13	3.77	45 µM	5.1	> 100	–	–	3.85 µM	> 100
CC1(C)CC2CC(C)(CN2c2ncnc3ccc(Br)cc23)C1 (centres undefined)	28.8	> 100	–	–	12.4	24.9	13.4	27.3	13.3	26.1 µM	–	–	12.9	25.6 µM	10.2	22	–	–	2 µM	12.4

From PubChem BioAssay (NCI)
